Data: US7030087B2, “Synthetic approach to designed chemical structures” (priority 1996, dated 2006)
Marks after values point to notes of the source that are not given here. No end group written: not given here.

How the values were obtained:
[1] = tested on: E. coli 055:B5 endotoxin; assay: Chromogenic Limulus amoebocyte lysate test, neutralization of endotoxin in vitro; format: biochemical; conditions: 0.01 ng of LPS mixed with 5×10^−6M peptide
Protocol: (§1) LPS derived from P. aeruginosa and E. coli 0111:B4 or 055:B5 was purchased from List Biological Laboratories (Campbell, Calif.) and stored at 4° C. until use. A commercially available chromogenic Limulus amoebocyte lysate test (Whittaker, Walkersville, Md.) was used to measure endotoxin levels in all solutions and serum samples. Endotoxin levels in peptide solutions were determined to be less than about 0.1 ng/ml. The capacity of BG22, βpep-3 and BG16 to neutralize E. coli 055:B5 endotoxin in vitro was determined by mixing 0.01 ng of LPS with 5×10^−6M of each peptide and results were compared to that observed for 0.01 ng of LPS alone.

[2] = tested on: Pseudomonas aeruginosa LPS; assay: Endotoxemia in vivo, serum endotoxin levels; parameters: unit not given here; conditions: iv 125 μg peptide preincubated with 2 μg LPS per mouse
Protocol: as §1
(§2) To study endotoxemia in a mammal, 500 μg of each peptide was added to 8 μg of Pseudomonas aeruginosa LPS in 2.0 ml of pyrogen-free phosphate buffered saline (PBS) ex vivo, and incubated for 30 minutes on a shaker at room temperature. Each mouse was injected via tail vein with 0.5 ml of the mixture (125 μg of BG22, BG16, or βpep-3 and 2 μg of LPS per mouse). Mice were euthanized at 30, 60, 90 and 120 minutes after injection and serum collected just prior to death was analyzed for endotoxin levels and TNF-α concentration.
All TNF-α and endotoxin measurements in duplicate or triplicate in each experiment. In vivo experiments were performed twice to confirm reproducibility. The results obtained were compared using the unpaired Student's t-test.

[3] = tested on: endotoxin from E. coli 055:B5; assay: Limulus amoebocyte lysate assay (E-TOXATE), endotoxin neutralization; format: biochemical; conditions: 5.0 × 10^−6 M Peptide; 0.02 U (0.2 pg) endotoxin from E. coli 055:B5; Table 4
Protocol: The peptides were tested for their ability to neutralize endotoxin. Quantitative endotoxin activities for these peptides were measured by Limulus amoebocyte lysate assay.
Limulus amoebocyte lysate assay: The ability of synthetic peptides to neutralize endotoxin was detected with the E-TOXATE kit manufactured by Sigma Chemicals (St. Louis, Mo.). […] Peptide or B/PI was incubated with LPS at room temperature for 5 min in 100 ul of a 1:2 dilution of pyrogen-free saline (pH 6.4). The reaction was started by addition of 100 ul of amoebocyte lysate and the final volume was 200 ul. Assuming a 10,000 molecular weight for LPS, the approximate molar ration of B/PI:LPS at neutralization was 3000 to 1.
The peptides were tested according to the method provided above. […] BG38L was used as a positive control in these experiments.

[4] = tested on: RAW 264.7 cells; assay: LPS-induced secretion of TNF-α in vitro by RAW 264.7 cells; format: cell-based; conditions: 200 ng/ml E. coli 0111:B4 LPS preincubated with 10^−5 M peptide, 3 hours; compared to BG22, p=0.04
Protocol: […] RAW 264.7 cells were placed in each well of a 24-well culture plate and allowed to adhere. Immediately before LPS stimulation, medium was removed and cells were washed in serum-free Dulbecco's modified Eagle's medium (DMDM). Cells were incubated at 37° C. in a 10% CO2 atmosphere for 3 hours with: 1) DMEM alone, 2) E. coli 0111:B4 LPS alone, or 3) E. coli 0111:B4 LPS preincubated with BG22, βpep-3 or BG16. The concentration of LPS used in all groups was 200 ng/ml. To avoid non-specific inhibition of LPS-induced TNF-α secretion, 10^−5 M of each peptide was used in the experimental wells. At the end of the incubation period, macrophage supernatants were collected and assayed for TNF-α concentration.
TNF-α concentrations were measured as described by Battafarano et al. (supra). Briefly, the TNF-α sensitive cell line WEHI was used in all assays of either RAW cell supernatant (in vitro) or serum (in vivo animal model). Concentrations were extrapolated from a standard curve based oil dilutions of purified TNF-α (Genzyme, Cambridge, Mass.), and all samples were examined in triplicate. Viability of the WEHI cells was assessed by measuring the extent of cellular crystal violet uptake by spectrophotometry at 590 nm. In this assay, absorbance was inversely correlated with cell death and lysis resulting from exposure of WEHI cells to TNF-α. […]

[5] = tested on: TNF-α; assay: Endotoxemia in vivo, serum TNF-α levels; parameters: species or system mouse; conditions: 90 minutes post-challenge; compared to mice receiving LPS without peptide, p<0.05
Protocol: TNF-α concentrations were measured as described by Battafarano et al. (supra). Briefly, the TNF-α sensitive cell line WEHI was used in all assays of either RAW cell supernatant (in vitro) or serum (in vivo animal model). Concentrations were extrapolated from a standard curve based oil dilutions of purified TNF-α (Genzyme, Cambridge, Mass.), and all samples were examined in triplicate. Viability of the WEHI cells was assessed by measuring the extent of cellular crystal violet uptake by spectrophotometry at 590 nm. In this assay, absorbance was inversely correlated with cell death and lysis resulting from exposure of WEHI cells to TNF-α. The amount of TNF-α in each experimental sample was extrapolated from the standard curve.
as §2
All TNF-α and endotoxin measurements in duplicate or triplicate in each experiment. […]

[6] = tested on: P. aeruginosa; assay: Bactericidal activity assay; format: cell-based, Pseudomonas aeruginosa type 1; conditions: 1.2 × 10^−7 M Peptide; 5 × 105 P. aeruginosa
From the text: Bacteria: P. aeruginosa type 1 is a clinical isolate maintained in the laboratory. The isolate remains a smooth strain and was serotyped by the scheme of Homma. The Pseudomonas strain was maintained by monthly transfer on blood agar plates.
The peptides can be assayed for bactericidal activity against a variety of organisms such as Pseudomonas aeruginosa type 1, P. cepacia ATCC 25608, E. coli B, and Staphylococcus aureus 502A by standard methods.
Pseudomonas aeruginosa type 1 is a clinical isolate. The isolate remains a smooth strain and was serotyped by the scheme of Homma (Jpn. J. Exp. Med. 46:329, 1976). A rough strain, E. coli B and S. aureus 502A were obtained from Paul Quie, University of Minnesota (Minneapolis, Minn.). The characteristics of the S. aureus strain have been described by Shinefield et al. (Amer. J. Dis. Chil. 105:646, 1963). Pseudomonas cepacia ATCC 25608 can be purchased from the ATCC. S. aureus and E. coli were maintained on nutrient agar plates and the Pseudomonas strains were maintained on blood agar plates.
Pyrogen-free solutions were used throughout the assay and all methods that follow. Log phase bacteria were prepared from a culture in brain heart infusion broth (Hovde et al. Infect. Immun. 54:142–148, 1986) and bacteria were washed and resuspended in saline with adjustment to an optical density at 650 nm to provide a yield of about 3×10^8 CFU/ml. Bacteria were diluted 1:10 in 0.08M citrate phosphate buffer, pH 5.6 or pH 7.0, for use in the assay. S. aureus rapidly lost viability in the pH 5.6 buffer and was studied only at pH 7.0. Bactericidal activity was determined by dose response over peptide concentrations ranging from about […] to about 4.1×10^−9M. Bactericidal activity was determined by dose response, preferably determining LD50 by linear regression.

[7] = molecular target: the molecule itself; assay: PFG NMR self-diffusion; self-association
Protocol: (§3) Pulsed-Field Gradient (PFG) NMR Self-Diffusion Measurements of β-Peptide Series Peptides Pulsed-field gradient (PFG) NMR diffusion measurements (Gibbs, et al. *J. Magn. Reson* 93:395–402, 1991) were performed on βpep peptides to assess self-association properties. Pulsed field gradient (PFG) NMR self-diffusion measurements were made on a Bruker AMX-600 using a GRASP gradient unit. NMR spectra for measurement of diffusion coefficients, D, were acquired using a 5 mm triple-resonance probe equipped with an actively shielded z-gradient coil. […]
(§4) The Stokes-Einstein relationship $D = k_B T / 6\pi \eta R$ was used to relate D to the macro-molecular radius, R, which was considered to be proportional to the square root of the apparent molecular weight, Mapp^{1/2} (Cantor et al. 1980. *The behavior of biological macromolecules*. Biophysical Chemistry, part III. New York: W. H. Freeman. pp. 979–1039). […] Use of the Stokes-Einstein relationship is specifically derived for a hard sphere, and although the actual molecular shape of each peptide aggregate would affect the diffusion coefficient, the maximum change in the ratio $Daggregate/Dmonomer$ would be about 20% in case of an improbable linear peptide tetramer. $Mapp$ for peptides was calculated using D values of lysozyme, ribonuclease and ubiquitin as standards for monomers of known molecular weight.

[8] = molecular target: the molecule itself; assay: PFG NMR self-diffusion at 30 C, calibrated with lysozyme, ubiquitin and ribonuclease; self-association
Protocol: Reson* 93:395–402, 1991) were performed on βpep peptides to assess self-association properties. Pulsed field gradient (PFG) NMR self-diffusion measurements were made on a Bruker AMX-600 using a GRASP gradient unit. NMR spectra for measurement of diffusion coefficients, D, were acquired using a 5 mm triple-resonance probe equipped with an actively shielded z-gradient coil. […] The PFG longitudinal eddy-current delay pulse-sequence was used for all self-diffusion measurements which were performed in D_2O over the temperature range 275° K to 310° K Peptide concentrations ranged from 3 mg/mL to 10 mg/mL.
The Stokes-Einstein relationship $D = k_B T / 6\pi \eta R$ was used to relate D to the macro-molecular radius, R, which was considered to be proportional to the square root of the apparent molecular weight, Mapp^{1/2} (Cantor et al. 1980. *The behavior of biological macromolecules*. Biophysical Chemistry, part III. New York: W. H. Freeman. pp. 979–1039). Therefore, D is proportional to Mapp^{-1/2}. From these simple relationships, the ratio $Ddimer/Dmonomer$ was 0.71, which is very close to 0.72 theoretically predicted for a two sphere dimer (Wills, et al. *J. Phys. Chem.* 85: 3978–3984, 1981). Use of the Stokes-Einstein relationship is specifically derived for a hard sphere, and although the actual molecular shape of each peptide aggregate would affect the diffusion coefficient, the maximum change in the ratio $Daggregate/Dmonomer$ would be about 20% in case of an improbable linear peptide tetramer. $Mapp$ for peptides was calculated using D values of lysozyme, ribonuclease and ubiquitin as standards for monomers of known molecular weight.
The temperature dependence of diffusion coefficients is plotted in FIG. 4. […] Moreover, for βpep-5, βpep-8 and βpep-1, the temperature dependence was linear and followed the activation energy expected for the self-diffusion of water.

[9] = molecular target: the molecule itself; assay: NMR solution structure; self-association
[10] = molecular target: the molecule itself; assay: PFG NMR self-diffusion, 10 C to 40 C; self-association
Protocol: as §3, §4

[11] = molecular target: the molecule itself; assay: PFG NMR self-diffusion at 2 C; self-association
Protocol: as §3, §4

[12] = 30 minutes after LPS/Peptide injection
[13] = 60 minutes after LPS/Peptide injection
[14] = 90 minutes after LPS/Peptide injection
[15] = 120 minutes after LPS/Peptide injection

MNSQVCEKVTNSVSSKLQPYFQTLPVMTKI [BG16]
% Neutralization of Endotoxin [1]: 0%
endotoxemia in vivo, serum endotoxin levels [2, 12]: >10,000
endotoxemia in vivo, serum endotoxin levels [2, 13]: 2,394
endotoxemia in vivo, serum endotoxin levels [2, 14]: 5,599
endotoxemia in vivo, serum endotoxin levels [2, 15]: >10,000

HIKELQVKWKAQKRFLKMSIIVKLNDGRELSLD [βpep-3]
% Neutralization of Endotoxin [1]: 81%
Endotoxin Neutralization, % neutralization [3]: 79.4, n = 10%
LPS-induced TNF-α secretion (in words) [4]: significantly greater decrease in TNF-α secretion
endotoxemia in vivo, serum endotoxin levels [2, 12]: 11*
endotoxemia in vivo, serum endotoxin levels [2, 13]: 37*
endotoxemia in vivo, serum endotoxin levels [2, 14]: 63*
endotoxemia in vivo, serum endotoxin levels [2, 15]: 66*
serum TNF-α levels (in words) [5]: decreased serum TNF-α levels
Bactericidal Activity, % killing [6]: 24.9, n = 3%

NANIKISGKWKAQKRFLKMSGNFDLSI [BG22, a 27mer, BPI aa 82–108]
% Neutralization of Endotoxin [1]: 37%
endotoxemia in vivo, serum endotoxin levels [2, 12]: 7*
endotoxemia in vivo, serum endotoxin levels [2, 13]: 28*
endotoxemia in vivo, serum endotoxin levels [2, 14]: 73*
endotoxemia in vivo, serum endotoxin levels [2, 15]: 47*
serum TNF-α levels (in words) [5]: decreased serum TNF-α levels

B1: βpep-1 (peptide)
peptide: SIQDLNVSMKLFRKQAKWKIIVKLNDGRELSLD-NH2
modifications: not fully specified
notes: Synthetic 33-mer designed de novo; It is entered as the monomer chain
ratio of average molecular weight to calculated monomer molecular weight [7]: 3.6
average molecular weight (apparent, self-associated state) [8]: 13700 Da

B2: βpep-4 (peptide)
peptide: SIQDLNVSMKLFRKQAKWKINVKLNDGRELSLD-NH2
modifications: also: β-sheet sandwich tetramer
notes: as for B1
binding result [9]: binds

B3: βpep-5 (peptide)
peptide: KFIVTLRVIKAGPHSPTAQIIVELKNGRKLSLD-NH2
modifications: not fully specified
notes: It is entered as the monomer chain
ratio of average molecular weight to calculated monomer molecular weight [7]: 3.6
average molecular weight (apparent, self-associated state) [8]: 12800 Da

B4: βpep-8 (peptide)
peptide: ANIKLSVEMKLFKRHLKWKIIVKLNDGRELSLD-NH2
modifications: not fully specified
notes: as for B1
ratio of apparent molecular weight to calculated monomer molecular weight [10]: 2.4
ratio of apparent molecular weight to calculated monomer molecular weight [11]: 3.7
average molecular weight (apparent, self-associated state) [8]: 9490 Da
